In US20250171420A1 (Monte Rosa Therapeutics, Inc., priority 2022, published 2025):

Key:
Assay type in all cases: cell-based
LS180 cell line = assay: Growth inhibition, CyQUANT Direct Cell Proliferation Assay, LS180; settings: Homo sapiens; LS180, 120 to 168 hours; read-out: LS180 GI50
Method in brief: (§1)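 Cells seeded 300 to 1,800 per well, day-0 CyQUANT Direct read after overnight attachment; 9-point 3-fold dilutions from 30 μM top concentration, 120 to 168 h exposure, 0.3% DMSO control. Fluorescence Ex/Em 480/520 nm; growth inhibition normalised to day-0 and untreated day-N signals, GI50 at 50% of untreated control.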

CK1α = target: T1, CK1α (Homo sapiens, UniProt P48729+Q96SW2); assay: Western blot of CK1α levels in HEK293 and HEK293 CRBN knock out cells; settings: 0.1, 1, 10 μM, 24 hours, FIG. 1
T1 construct: HEK293 clonal lines with CRISPR KI HiBiT tag on CSNK1A1
Procedure: HEK293 cell line was purchased from ATCC (CRL-1573). HEK293 CRBN knock out (k/o) cell line (B2) was generated internally using CRISPR/Cas9 method and clonally expanded. Cells were plated at 2×10^5 cells per well in 6-well tissue culture plates (VWR) in 2 ml of DMEM media (Gibco) containing 10% FBS (Gibco), and incubated for 16 hours at 37° C., 5% CO2. Compounds were added to final concentration of 0.1 μM, 1 μM, 10 μM (DMSO concentration was kept constant at 0.1%), following incubation at 37° C., 5% CO2 for additional 24 hours. Cell lysis was performed using RIPA buffer (Pierce) containing Halt™ Protease Inhibitor Cocktail (ThermoFisher Scientific). Lysates were boiled at 95° C. for 10 minutes and 12 μg of protein lysate per sample was resolved by SDS-PAGE using 12% gels (BioRad) and transferred to nitrocellulose membrane (BioRad). Membranes were blocked using LI-COR blocking buffer (LI-COR) at room temperature for 1 hour, followed by overnight incubation with rabbit anti-CK1α (Abcam ab206652), rabbit anti-CRBN (Sigma HPA045910) and mouse anti-α-tubulin (Sigma T9026) antibodies at 4° C. Secondary antibodies (LI-COR) were added for 1 hour at room temperature, followed by imaging with LI-COR imaging system Odyssey® CLx.

CW2 cell line = assay: Growth inhibition, CyQUANT Direct Cell Proliferation Assay, CW2; settings: Homo sapiens, CW-2; CW2, 120 to 168 hours; read-out: CW2 GI50
Method in brief: as §1

T1 sequence (P48729 whole entry): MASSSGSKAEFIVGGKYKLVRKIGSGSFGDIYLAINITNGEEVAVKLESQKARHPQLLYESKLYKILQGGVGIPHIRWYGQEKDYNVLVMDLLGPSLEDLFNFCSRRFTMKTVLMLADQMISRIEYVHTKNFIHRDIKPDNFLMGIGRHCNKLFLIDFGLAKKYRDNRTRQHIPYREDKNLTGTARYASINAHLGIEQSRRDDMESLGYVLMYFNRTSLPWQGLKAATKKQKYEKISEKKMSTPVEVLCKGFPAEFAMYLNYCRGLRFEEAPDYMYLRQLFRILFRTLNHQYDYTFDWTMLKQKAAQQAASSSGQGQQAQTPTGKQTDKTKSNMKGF
T1 sequence (Q96SW2 whole entry): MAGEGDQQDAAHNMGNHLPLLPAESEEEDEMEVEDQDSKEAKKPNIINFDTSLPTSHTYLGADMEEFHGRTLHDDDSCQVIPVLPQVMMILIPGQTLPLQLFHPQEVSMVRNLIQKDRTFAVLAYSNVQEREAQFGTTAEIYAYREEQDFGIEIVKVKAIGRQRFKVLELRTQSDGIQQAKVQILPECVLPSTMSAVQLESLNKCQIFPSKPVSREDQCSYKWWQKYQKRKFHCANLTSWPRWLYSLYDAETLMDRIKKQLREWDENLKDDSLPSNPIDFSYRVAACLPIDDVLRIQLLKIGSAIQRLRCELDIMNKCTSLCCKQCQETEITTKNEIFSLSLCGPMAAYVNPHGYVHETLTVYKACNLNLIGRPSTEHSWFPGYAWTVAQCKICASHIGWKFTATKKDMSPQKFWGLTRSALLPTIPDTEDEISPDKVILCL
T1 sequence (Q16531 2-1140 partner limits assumed): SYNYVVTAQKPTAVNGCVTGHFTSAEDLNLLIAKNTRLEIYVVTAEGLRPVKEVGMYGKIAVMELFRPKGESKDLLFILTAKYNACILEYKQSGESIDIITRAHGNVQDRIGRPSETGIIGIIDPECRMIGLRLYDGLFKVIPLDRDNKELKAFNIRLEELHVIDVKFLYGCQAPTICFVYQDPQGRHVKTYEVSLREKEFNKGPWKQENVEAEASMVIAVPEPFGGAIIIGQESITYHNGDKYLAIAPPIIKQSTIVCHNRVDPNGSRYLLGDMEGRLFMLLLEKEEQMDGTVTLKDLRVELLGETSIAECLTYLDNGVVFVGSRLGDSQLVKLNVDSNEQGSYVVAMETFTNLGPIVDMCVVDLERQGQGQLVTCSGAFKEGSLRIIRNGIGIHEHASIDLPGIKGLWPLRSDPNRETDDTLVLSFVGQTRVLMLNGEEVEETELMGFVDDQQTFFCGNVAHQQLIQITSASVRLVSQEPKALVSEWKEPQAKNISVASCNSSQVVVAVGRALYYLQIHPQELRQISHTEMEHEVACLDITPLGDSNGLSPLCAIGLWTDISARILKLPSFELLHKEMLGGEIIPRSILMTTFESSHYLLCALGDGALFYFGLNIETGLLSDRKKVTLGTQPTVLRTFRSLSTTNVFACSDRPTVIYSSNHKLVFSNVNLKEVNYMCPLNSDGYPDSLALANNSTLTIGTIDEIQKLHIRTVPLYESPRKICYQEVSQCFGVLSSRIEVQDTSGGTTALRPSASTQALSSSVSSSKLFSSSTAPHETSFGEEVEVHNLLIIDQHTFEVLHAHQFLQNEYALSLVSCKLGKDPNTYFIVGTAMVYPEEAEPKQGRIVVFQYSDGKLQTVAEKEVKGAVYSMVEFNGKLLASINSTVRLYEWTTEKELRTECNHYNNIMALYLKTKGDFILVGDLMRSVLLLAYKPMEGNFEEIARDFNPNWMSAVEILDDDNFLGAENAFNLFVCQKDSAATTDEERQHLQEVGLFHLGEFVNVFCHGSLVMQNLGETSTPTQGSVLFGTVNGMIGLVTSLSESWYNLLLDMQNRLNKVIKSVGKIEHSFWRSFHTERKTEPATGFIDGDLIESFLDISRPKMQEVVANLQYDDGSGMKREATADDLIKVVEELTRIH

- effect on CK1a levels in HEK293 cell line (CK1α; HEK293, cereblon present): decreases CK1a levels
- effect on CK1a levels in cereblon (CRBN) knock-out HEK293 cell line (CK1α; HEK293 CRBN knock-out): no effect on CK1a levels
SMILES: C[C@@H]1Cc2ccccc2N1C(=O)Nc1ccc2c(c1)CN(C1CCC(=O)NC1=O)C2=O (stereo partly drawn) [Compound 102, (2R)—N-(2-(2,6-dioxopiperidin-3-yl)-1-oxoisoindolin-5-yl)-2-methylindoline-1-carboxamide]
- GI50 (LS180 cell line): 0.1 to 1 µM
- GI50 (CW2 cell line): < 0.1 µM
